Test results from a melting point compilation (Tetko et al.).

Compound: COc1ccc(C(=O)O)cc1S(=O)(=O)Cc1cc(C)no1
- melting point: 217 to 219 °C

Compound: CS(=O)c1ccccc1N (stereo unspecified)
- melting point: 156 to 158 °C

Compound: O=C(O)c1c2c(nc3ccc(Br)cc13)CCCC2
- melting point: 291 to 293 °C

Compound: NS(=O)(=O)CC(=O)O
- melting point: 119 to 121 °C

Compound: CCOC(=O)C=Cc1ccc2c(c1)OCO2
- melting point: 66 to 68 °C

Compound: O=C(O)c1c(C(F)(F)F)noc1C(F)(F)F
- melting point: 169 to 171 °C

Compound: Cc1cc(Br)cc2c(O)c(C#N)cnc12
- melting point: 349 to 351 °C

Compound: O=C(O)c1ccc(-c2ccccc2)cc1F
- melting point: 187 to 189 °C

Compound: CC1(O)CCc2ccccc21 (stereo unspecified)
- melting point: 56 to 58 °C

Compound: CON(C)S(=O)(=O)c1cccc(C(=O)O)c1
- melting point: 134 to 138 °C

Compound: OC1CC(c2ccccc2F)C1 (stereo unspecified)
- melting point: 46 to 48 °C

Compound: CN(c1cccc(Cl)c1)S(=O)(=O)c1cccc(C(=O)O)c1
- melting point: 162 to 164 °C

Compound: O=C(O)CCc1nc2ccccc2[nH]1
- melting point: 229 to 231 °C

Compound: CNC(=O)COc1ccc(N)c(F)c1
- melting point: 81 to 83 °C

Compound: Nc1ccc(S(=O)(=O)Nc2cccc(C(F)(F)F)c2)cc1N
- melting point: 143 to 147 °C

Compound: CCN(CC)S(=O)(=O)c1ccc(OC)c(C(=O)O)c1
- melting point: 119 to 121 °C

Compound: CC1CCN(Cc2ccc(N)cc2)CC1
- melting point: 61 to 63 °C

Compound: COC(=O)c1n[nH]c2ccc(N)cc12
- melting point: 181 to 183 °C

Compound: O=C(O)c1cccc(Br)c1I
- melting point: 139 to 141 °C

Compound: CC(C)(C)c1nc(=N)s[nH]1
- melting point: 160 to 162 °C

Compound: OCc1cc(Cl)cc2c1OCC2
- melting point: 97 to 99 °C

Compound: O=C(O)c1ccc(-n2ncc(Cl)c(Cl)c2=O)cc1
- melting point: 314 to 316 °C

Compound: NS(=O)(=O)c1ccc(S(=O)(=O)N2CCC(C(=O)O)CC2)cc1
- melting point: 190 to 192 °C

Compound: Cc1cc(N)c(C(N)=O)cc1F
- melting point: 192 to 194 °C

Compound: O=C(O)C(=O)c1ccc(Cl)cc1
- melting point: 87 to 89 °C

Compound: CS(=O)(=O)N1CCc2ccccc2C1CC(=O)O (stereo unspecified)
- melting point: 126 to 128 °C

Compound: CNC(=O)Nc1ccc(N)cc1
- melting point: 147 to 149 °C

Compound: O=C(O)c1cc(F)cc2[nH]c(S)nc12
- melting point: 374 to 376 °C

Compound: CS(=O)(=O)Nc1ccc(-c2csc(N)n2)cc1
- melting point: 196 to 198 °C

Compound: O=C(O)c1cccc(OC2CCCCC2)c1
- melting point: 75 to 77 °C

Compound: Cc1cc(Cl)cc([N+](=O)[O-])c1I
- melting point: 73 to 75 °C

Compound: Cc1cc(N)ccc1OCCN1CCCC1
- melting point: 112 to 114 °C

Compound: O=C(O)CC1CCCCO1 (stereo unspecified)
- melting point: 49 to 51 °C

Compound: Nc1nc(C(=O)O)n[nH]1
- melting point: 178 to 182 °C

Compound: CCCOc1ccc(C(=O)NN)cc1OC
- melting point: 146 to 148 °C

Compound: O=c1[nH]c2cc(Cl)ccc2c(=O)o1
- melting point: 250 to 252 °C

Compound: CS(=O)(=O)c1cc(S(N)(=O)=O)ccc1F
- melting point: 202 to 204 °C

Compound: Cc1cc(Oc2ccc(N)cc2)n[nH]1
- melting point: 189 to 191 °C

Compound: O=C(O)c1cccnc1Nc1cccc(F)c1
- melting point: 202 to 204 °C

Compound: O=C(Cc1ccccc1)Nc1ccccc1C(=O)O
- melting point: 192 to 194 °C

Compound: NC(=O)NC(CC(=O)O)c1cccc(Oc2ccccc2)c1 (stereo unspecified)
- melting point: 122 to 124 °C

Compound: CCOC(=O)CC(O)c1ccc(OCc2ccccc2)cc1 (stereo unspecified)
- melting point: 61 to 63 °C

Compound: NS(=O)(=O)c1ccc(F)cc1C(=O)O
- melting point: 218 to 220 °C

Compound: O=C(O)CC1OCCc2ccsc21 (stereo unspecified)
- melting point: 109 to 111 °C

Compound: CC1CCc2c(sc(N)c2C(N)=O)C1 (stereo unspecified)
- melting point: 188 to 190 °C

Compound: Cc1nn(Cc2ccccc2)c(C)c1C(=O)O
- melting point: 137 to 139 °C

Compound: COc1cccc(/C=C/c2cc(C(=O)O)c3cc(Br)ccc3n2)c1
- melting point: 285 to 287 °C

Compound: Sc1nnnn1Cc1ccco1
- melting point: 78 to 80 °C

Compound: CNC(=O)c1cc([N+](=O)[O-])ccc1F
- melting point: 142 to 144 °C

Compound: Cc1ccc(C#N)c(N2CCCC2)n1
- melting point: 74 to 76 °C

Compound: COc1ccccc1-c1nc(C(=O)O)cs1
- melting point: 184 to 186 °C

Compound: CCCCNc1c(N)n(Cc2ccccc2)c(=O)[nH]c1=O
- melting point: 117 to 119 °C

Compound: Ic1nnc(-c2ccccc2)s1
- melting point: 105 to 107 °C

Compound: Fc1ccc(OCC2CNCCO2)cc1F (stereo unspecified)
- melting point: 49 to 51 °C

Compound: CCNC(=O)NC1(C(=O)O)CCCC1
- melting point: 142 to 144 °C

Compound: O=C(CCl)Nc1ncc(Cc2ccc(F)cc2)s1
- melting point: 149 to 151 °C
